# Several values for one entry are separate records, joined by “and”; a condition that tells them apart may be missing. Equal entries are not always repeated.
# How the values were obtained:
# GPR55 = GPR55 (Homo sapiens, UniProt Q9Y2T6); assay: Cellular uptake of TocriFluor T1117 in PANC-1 cells; settings: MNF 1 μM
# Protocol: Cellular uptake of TocriFluor T1117, a fluorescently labeled GPR55 agonist Cells were grown in 35-mm glass bottom culture dishes (MatTek Corp., Ashland, Mass., USA) for 48 hours until reaching ˜70% confluence. […] Cells were imaged with a Zeiss LSM 710 confocal microscope equipped with a temperature-controlled and humidified CO2 chamber and a definite focus system. […] The time-series function of the Zeiss Zen software was used to collect images with a 40×1.3 NA objective every 30 s for up to one hour, with all confocal settings remaining the same throughout the studies. Still images, movies and fluorescent intensity quantitation were obtained from these series using the Zeiss Zen software. Studies were repeated at least two to three times.
# [1] = Plasma and brain tissue concentrations after IV administration in Sprague-Dawley rats; format: in vivo, rat; settings: for AUCinf / AUClast / Cmax / t1/2 (hr), elimination phase half life / C^0 (ng/ml), plasma concentration extrapolated to time 0 / Cl (ml/hr/kg), whole body clearance / V (l/kg), apparent volume of distribution: male Sprague-Dawley rats; for AUCinf / AUClast / Cmax / t1/2 (hr), elimination phase half life: plasma
# Protocol: To determine plasma and brain tissue concentrations of MNF, the concentrations of MNF and its metabolites in plasma and brain tissue samples obtained from male Sprague-Dawley rats were determined after administration of a single IV dose of 10 mg/kg of MNF. The assays were conducted using an Eclipse XDB-C18 guard column (4.6 mm×12.5 mm) and an Atlantis HILIC column (150×2.1 mm ID, […]). The mobile phase consisted of water containing 0.1% formic acid as Component A and acetonitrile as component B. A linear gradient was run as follows: 0 minutes 95% B; 5 minutes 60% B; 6 minutes 80% B; 10 minutes 95% B at a flow rate of 1.0 ml/minutes. The total run time was 15 minutes per sample. Identification and quantification of the analytes was accomplished using an API-4000 LC-MS/MS in positive electrospray ionization mode and data was acquired employing multiple reaction monitoring (MRM) and the following MRM transitions: MNF (369-200); MNF-Gluc (545-200).
# Ten mg/kg MNF was administered IV to male Sprague-Dawley rats and the plasma concentrations of MNF were determined between 10 minutes and 24 hours post administration with the levels measured in 3 animals per time point. In the same study, the concentration of MNF in brain tissue was measured between 10 and 60 minutes after administration with 3 animals per time point. The MNF concentration in brain tissue was 200 ng/mg tissue at 10 minutes after administration and peaked at 30 minutes at 800 ng/mg tissue. The relative distribution between the concentration of MNF in blood (measured as ng/ml) and brain tissue (measured as ng/mg tissue) was 0.2 at 10 minutes and 1.0 at 30 minutes and 60 minutes reflecting an equivalent distribution between both the central and peripheral body compartments. […] Further, the apparent volume of distribution (V) is high indicating extensive tissue distribution.
# [2] = Effect on central nervous system functions; format: in vivo; settings: as compared to tetrahydrocannabinol
# Protocol: Additional studies were performed which further evaluated the effect of MNF on central nervous system functions.
# ERK1/2 = ERK1/2 phosphorylation (GPR55 downstream signaling) in PANC-1 cells; format: cell-based, human
# Protocol: Western blot analysis. For detection of intracellular signaling proteins, cells were lysed in radioimmunoprecipitation buffer containing EGTA and EDTA (Boston BioProducts, Ashland, Mass.). The lysis buffer contained a protease inhibitor cocktail (Sigma-Aldrich) and phosphatase inhibitor cocktail (Calbiochem, San Diego, Calif.). Equivalent amount of proteins (14 and 54 μg/well for PANC-1 and HepG2 cells, respectively) were separated on 4 to 12% precast gels (Invitrogen, Carlsbad, Calif.) using SDS-polyacrylamide gel electrophoresis under reducing conditions and then electrophoretically transferred onto polyvinylidene fluoride membrane (Invitrogen). Western blots were performed according to standard methods, which involved blocking in 5% non-fat milk and incubated with the antibody of interest, followed by incubation with a secondary antibody conjugated with the enzyme horseradish perodixase. […] The quantification of bands was done by volume densitometry by using ImageJ software. […]
# Effect of MNF on O-1602-mediated increase in cell signaling. Serum-starved cells were pretreated in the absence or presence of 1 μM MNF for 10 minutes followed by a 10 minute incubation with 0, 2.5 and 10 μM O-1602 or 10% FBS, after which the levels of total ERK2 and phosphorylated forms of ERK1/2 (pErk1/2, Thr202/Tyr204), were determined by Western blotting technique. […]
# cyclin A and cyclin D1 = assay: Western blot of cell cycle regulator proteins (cyclin A, cyclin D1), C6 glioma; set-up: species or system mouse; settings: C6 glioma in vivo and in vitro
# Description: Western Blot Analysis. Frozen tumor tissues were lysed with radioimmune precipitation buffer containing EGTA and EDTA (Boston BioProducts, Ashland, Mass.) supplemented with a phosphatase inhibitor cocktail (EMB-Calbiochem), and protease inhibitor cocktail (Sigma-Aldrich), according to standard protocols. Equal amounts of protein from the clarified lysates were separated by SDS-polyacrylamide gel electrophoresis under reducing conditions (Invitrogen, Carlsbad, Calif.), and electrotransferred onto polyvinylidene difluoride membranes using the iBlot system (Invitrogen). Western blots were performed according to standard methods, which involved blocking the membrane in 5% non-fat milk, followed by sequential incubation method with the primary antibody of interest and secondary antibody conjugated with the enzyme horseradish peroxidase. The detection of immunoreactive bands was performed by chemiluminescence using the ECL Plus Western Blotting Detection System (GE Healthcare, Piscataway, N.J.). Quantitation of the protein bands was done by volume densitometry using ImageJ software (National Institutes of Health, Bethesda, Md.). […]
# [3] = Dose escalation and 7-day repeat dose range finding study in Sprague-Dawley rats; format: in vivo, rat; settings: for Gross Necropsy Observation: interim (Day 8) and terminal (Day 14), red: thymus, mandibular lymph node, black or necrosis: tail
# Protocol: A single dose escalation study was performed to select dose levels for 7-day repeat dose study with IV administration in Sprague-Dawley rats. Dose levels were 0, 5, 10 and 25 mg/kg.
# [4] = 10 mg/kg IV, individual rat, 10 mg/kg
# Chain of GPR55 (Q9Y2T6 whole entry): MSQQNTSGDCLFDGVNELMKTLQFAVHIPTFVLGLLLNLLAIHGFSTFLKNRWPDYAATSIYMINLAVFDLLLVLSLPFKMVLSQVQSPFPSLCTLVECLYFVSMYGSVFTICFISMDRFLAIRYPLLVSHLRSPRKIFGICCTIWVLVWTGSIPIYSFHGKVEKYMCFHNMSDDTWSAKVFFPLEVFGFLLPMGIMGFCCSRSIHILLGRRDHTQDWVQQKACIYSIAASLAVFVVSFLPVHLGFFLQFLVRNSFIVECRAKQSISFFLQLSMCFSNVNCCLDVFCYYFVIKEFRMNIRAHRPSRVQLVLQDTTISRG
smiles,measurement,setting,value
"COc1ccc(C[C@@H](C)NC[C@H](O)c2cc(O)cc(O)c2)c2ccccc12 [(R,R′)-MNF, (R,R′)-4′-methoxy-1-naphthylfenoterol]",T1117 incorporation,GPR55,potent inhibitor of T1117 incorporation in PANC-1 cells
same,AUCinf,"[1]; 10 mg/kg IV, Mean",4378.0 ng·h/mL
same,AUClast,"[1]; 10 mg/kg IV, Mean",3519.3 ng·h/mL
same,Cmax,"[1]; 10 mg/kg IV, Mean",1823.0 ng/mL
same,"t1/2 (hr), elimination phase half life","[1]; 10 mg/kg IV, Mean",13.8 h
same,AUCinf,[1]; [4],4103.6 ng·h/mL and 5335.2 ng·h/mL and 3695.2 ng·h/mL
same,AUClast,[1]; [4],3582.2 ng·h/mL and 4070.7 ng·h/mL and 2905.1 ng·h/mL
same,Cmax,[1]; [4],1780.7 ng/mL and 2304.9 ng/mL and 1383.4 ng/mL
same,"t1/2 (hr), elimination phase half life",[1]; [4],9.8 h and 18.6 h and 13.0 h
same,"C^0 (ng/ml), plasma concentration extrapolated to time 0","[1]; 10 mg/kg IV, Mean",3168.5 ng/mL
same,"Cl (ml/hr/kg), whole body clearance","[1]; 10 mg/kg IV, Mean",2339.1 mL/h/kg
same,"V (l/kg), apparent volume of distribution","[1]; 10 mg/kg IV, Mean",45.1 L/kg
same,"C^0 (ng/ml), plasma concentration extrapolated to time 0",[1]; [4],3033.4 ng/mL and 4131.4 ng/mL and 2340.7 ng/mL
same,"Cl (ml/hr/kg), whole body clearance",[1]; [4],2436.9 mL/h/kg and 1874.4 mL/h/kg and 2706.2 mL/h/kg
same,"V (l/kg), apparent volume of distribution",[1]; [4],34.3 L/kg and 50.4 L/kg and 50.6 L/kg
same,MNF concentration in brain tissue,"[1]; rats, 10 mg/kg IV, 10 minutes after administration",200 ng/mg tissue
same,MNF concentration in brain tissue (peak),"[1]; rats, 10 mg/kg IV, 30 minutes after administration",800 ng/mg tissue
same,passage through the blood brain barrier,"[1]; rats, IV",capable of passing through the blood brain barrier
same,effects on the central nervous system,[2],not have any significant negative effects on the central nervous system
same,effect on O-1602-mediated ERK phosphorylation,"ERK1/2; PANC-1, 1 μM pretreatment 10 minutes",displayed exquisite sensitivity to MNF with regard to O-1602-mediated ERK phosphorylation
same,effect on serum-induced ERK phosphorylation,"ERK1/2; PANC-1, 1 μM pretreatment, 10% FBS",potently inhibited serum-induced ERK phosphorylation in both cell lines
same,expression of cell cycle regulator proteins,cyclin A and cyclin D1,marked reduction in the expression of cell cycle regulator proteins
same,Body Weight,"[3]; Sprague Dawley rats, iv, 0, 5, 10, or 25 mg/kg/day, 7-day",comparable
same,"Clinical Pathology: increases in WBC, % Neut., % RET/REA, and PLC","[3]; high-dose males and females, Day 8 and Day 14",Increases: ~2-fold
same,Gross Necropsy Observation,"[3]; black discoloration or necrosis, tail",Discolored black
same,Gross Necropsy Observation,"[3]; red discoloration, thymus and lymph node",Discolored red:
same,toxic effects,"[3]; single dose escalation, IV, 0, 5, 10 and 25 mg/kg, Sprague-Dawley rats",Toxic effects were minimal
